# Measured values: patent US9527839B2, “Benzimidazole tetrahydropyran derivatives” (Merck Sharp & Dohme Corp., priority 2012, dated 2016)
# Biological target: recombinant human AMPK complex 7 (containing α2β1γ1) (Homo sapiens (Human), UniProt P54646+Q9Y478)
# Assay: In vitro AMPK activation assay (AMPKSAMSF), complex 7
# Format: biochemical
# Conditions: recombinant human AMPK complex 7 (α2β1γ1)
# Protocol: (§1) The recombinant human AMPK complex 1 (containing α1β1γ1) or AMPK complex 7 (containing α2β1γ1) was obtained from baculovirus expression system. Recombinant viruses were generated by cotransfection of AMPK/pBacPak9 clones with Baculogold baculovirus DNA (Pharmingen) in spodoptera frugiperda 21 cells according to the manufacturer's instructions. Each round of virus amplification was performed for 5 days in Grace's medium containing 10% serum. Virus that had been subjected to three rounds of amplification was used for all protein production procedures. To express the AMPK complex, sf21 cells were adapted to serum free medium (SF900 II, Invitrogen) by sequential dilution from serum containing stocks into SF900II medium and maintained in shaker flasks at 90 rpm at 27° C. The recombinant AMPK enzyme complex was produced by triple infection, one recombinant virus for each of the subunits, in sf21 cells under serum free conditions. Cells were infected in log phase, 1×10^6 cells/ml, at a multiplicity of infection of 5. Cells were harvested by centrifugation at 10,000×g for 15 minutes after 72 hours of infection with viruses. The insect cell pellet from 2 liters of culture was resuspended in 50 ml lysis buffer (20 mM Tris-HCl, 50 mM NaCl, 50 mM NaF, 30 mM Na PPi, 0.25 M sucrose, 10 mM ZnCl2, 2 mM DTT, 0.4 mg/ml digitonin) and subjected to two cycles of freeze-thaw lysis in a dry-ice ethanol bath. Insoluble material was removed by centrifugation at 10,000×g and the supernatant was fractionated with use of polyethylene glycol (PEG). The protein fraction precipitating between 2.5 and 6% PEG was used for further purification using a Blue-Sepharose step (Zhou et al, J. Clin. Invest. 108, 1167-1174, 2001).
# (§2) The in vitro AMPK activation assay is performed in a volume of 30 μl in a 384-well plate. Enzyme reactions were assembled in the microtiter plate by adding 15 μl of 2X enzyme in assay buffer (20 mM HEPES, pH 7.3, 5 mM MgCl2, 3 mM DTT, 0.01% Brij 35 and CamK Kinase, to activate AMPK) to wells which contained either DMSO or compound. The reaction was initiated with the addition of 15 μl 2× substrate mixture containing 200 μM ATP, and 3.0 μM fluorescently labeled SAMS (5-FAM-HMRSAMSGLHLVKRR-COOH) in assay buffer. After 45-minute incubation at 25° C., the reaction was stopped by the addition of 70 μl stop buffer (100 mM HEPES, pH 7.3, 40 mM EDTA, 0.015% Brij 35). Phosphorylated 5-FAM SAMS product is assessed using a Caliper EZ Reader LabChip microfluidics reader. Product conversion is determined by calculating the peak heights of the substrate and product and reporting the product/(product+substrate) peak ratio. The 10-point titration data were expressed as % maximum AMP activation. The results were plotted using 4 parameter fit and the inflection point reflecting 50% of the maximum activation was reported as the EC50.
# recombinant human AMPK complex 7 (containing α2β1γ1), sequence (P54646 whole entry): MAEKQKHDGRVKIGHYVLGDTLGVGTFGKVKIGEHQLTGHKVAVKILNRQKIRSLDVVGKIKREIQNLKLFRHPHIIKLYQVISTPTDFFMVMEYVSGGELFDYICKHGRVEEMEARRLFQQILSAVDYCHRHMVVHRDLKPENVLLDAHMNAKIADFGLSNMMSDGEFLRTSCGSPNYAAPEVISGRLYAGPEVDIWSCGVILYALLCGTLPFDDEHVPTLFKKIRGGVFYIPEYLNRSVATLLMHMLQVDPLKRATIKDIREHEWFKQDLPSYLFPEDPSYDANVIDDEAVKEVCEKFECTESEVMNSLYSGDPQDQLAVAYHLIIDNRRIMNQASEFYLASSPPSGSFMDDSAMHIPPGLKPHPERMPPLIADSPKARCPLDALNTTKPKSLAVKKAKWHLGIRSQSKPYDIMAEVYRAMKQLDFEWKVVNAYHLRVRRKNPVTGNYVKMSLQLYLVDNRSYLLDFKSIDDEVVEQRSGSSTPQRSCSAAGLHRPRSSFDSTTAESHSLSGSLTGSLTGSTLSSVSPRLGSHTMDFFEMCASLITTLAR
# recombinant human AMPK complex 7 (containing α2β1γ1), sequence (Q9Y478 whole entry): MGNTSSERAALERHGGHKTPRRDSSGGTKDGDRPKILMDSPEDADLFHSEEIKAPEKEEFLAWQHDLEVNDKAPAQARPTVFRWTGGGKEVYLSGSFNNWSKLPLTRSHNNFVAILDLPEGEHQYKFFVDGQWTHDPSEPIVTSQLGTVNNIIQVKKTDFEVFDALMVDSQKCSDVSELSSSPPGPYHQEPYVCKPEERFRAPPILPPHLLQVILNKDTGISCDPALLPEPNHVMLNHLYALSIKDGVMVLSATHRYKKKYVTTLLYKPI
# recombinant human AMPK complex 7 (containing α2β1γ1), sequence (P54619 whole entry partner): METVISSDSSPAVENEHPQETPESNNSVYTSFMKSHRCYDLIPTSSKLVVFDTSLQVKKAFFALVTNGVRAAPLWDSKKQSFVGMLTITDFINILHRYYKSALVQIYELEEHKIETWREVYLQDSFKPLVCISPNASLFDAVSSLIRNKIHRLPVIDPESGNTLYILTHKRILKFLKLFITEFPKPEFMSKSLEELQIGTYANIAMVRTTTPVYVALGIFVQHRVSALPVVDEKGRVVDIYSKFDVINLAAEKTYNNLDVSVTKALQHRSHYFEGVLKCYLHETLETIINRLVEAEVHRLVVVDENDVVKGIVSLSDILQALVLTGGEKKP
row,Compound,EC50 [nM]
1,OC[C@H]1OC[C@H](Oc2nc3c(F)c(-c4ccc(-c5ccc(-n6cncn6)cc5)cc4)c(F)cc3[nH]2)C[C@@H]1O [Example 45],2
2,OC[C@H]1OC[C@H](Oc2nc3cc(-c4ccc(-c5ccc(-n6cncn6)cc5)cc4)c(Cl)cc3[nH]2)C[C@@H]1O [Example 21],9
3,O=S(=O)(c1ccc(-c2ccc(-c3cc4nc(O[C@H]5CO[C@H](CO)[C@@H](O)C5)[nH]c4cc3Cl)cc2)cc1)C1CCNCC1 [Example 18],14
4,OC[C@H]1OC[C@H](Oc2nc3c(F)c(-c4ccc(-c5ccc(C6CNCCO6)cc5)cc4)c(F)cc3[nH]2)C[C@@H]1O (stereo partly drawn) [Example 36],3
5,OC[C@H]1OC[C@H](Oc2nc3cc(-c4ccc(-c5ccc(-c6nnn[nH]6)cc5)cc4)c(Cl)cc3[nH]2)C[C@@H]1O [Example 23],18
6,OC[C@H]1OC[C@H](Oc2nc3c(F)c(-c4ccc(-c5ccc(-c6nnc(O)o6)cc5)cc4)c(F)cc3[nH]2)C[C@@H]1O [Example 47],7
7,O=C1NCCC1c1ccc(-c2ccc(-c3c(F)cc4[nH]c(O[C@H]5CO[C@H](CO)[C@@H](O)C5)nc4c3F)cc2)cc1 (stereo partly drawn) [Example 43],4
8,OC[C@H]1OC[C@H](Oc2nc3c(F)c(-c4ccc(-c5ccc(-c6nccs6)cc5)cc4)c(F)cc3[nH]2)C[C@@H]1O [Example 39],13
9,OC[C@H]1OC[C@H](Oc2nc3cc(-c4ccc(-c5ccc(-c6nccc(O)n6)cc5)cc4)c(Cl)cc3[nH]2)C[C@@H]1O [Example 6],7
10,O=S(=O)(c1ccc(-c2ccc(-c3c(F)cc4[nH]c(O[C@H]5CO[C@H](CO)[C@@H](O)C5)nc4c3F)cc2)cc1)C1CCNCC1 [Example 42],8
11,O=C1NCCC1c1ccc(-c2ccc(-c3cc4nc(O[C@H]5CO[C@H](CO)[C@@H](O)C5)[nH]c4cc3Cl)cc2)cc1 (stereo partly drawn) [Example 19],15
12,CNC(=O)c1ccc(-c2ccc(-c3c(F)cc4[nH]c(O[C@H]5CO[C@H](CO)[C@@H](O)C5)nc4c3F)cc2)cc1 [Example 48],2
13,O=C(O)CCCc1ccc(-c2ccc(-c3c(F)cc4[nH]c(O[C@H]5CO[C@H](CO)[C@@H](O)C5)nc4c3F)cc2)cc1 [Example 44],11
14,CC(C)(O)Cc1cnn(-c2ccc(-c3ccc(-c4c(F)cc5[nH]c(O[C@H]6CO[C@H](CO)[C@@H](O)C6)nc5c4F)cc3)cc2)c1 [Example 50],7
15,OC[C@H]1OC[C@H](Oc2nc3c(F)c(-c4ccc(-c5ccc(-c6nnn[nH]6)cc5)cc4)c(F)cc3[nH]2)C[C@@H]1O [Example 49],9
16,OC[C@H]1OC[C@H](Oc2nc3c(F)c(-c4ccc(-c5ccc(-c6ncco6)cc5)cc4)c(F)cc3[nH]2)C[C@@H]1O [Example 38],17
17,CC(C)(O)Cc1cnn(-c2ccc(-c3ccc(-c4cc5nc(O[C@H]6CO[C@H](CO)[C@@H](O)C6)[nH]c5cc4Cl)cc3)cc2)c1 [Example 24],18
18,N=c1nc(N)[nH]n1-c1ccc(-c2ccc(-c3c(F)cc4[nH]c(O[C@H]5CO[C@H](CO)[C@@H](O)C5)nc4c3F)cc2)cc1 [Example 40],5
19,N=c1nc(N)[nH]n1-c1ccc(-c2ccc(-c3cc4nc(O[C@H]5CO[C@H](CO)[C@@H](O)C5)[nH]c4cc3Cl)cc2)cc1 [Example 16],7
20,OC[C@H]1OC[C@H](Oc2nc3c(F)c(-c4ccc(-c5ccc(-c6nccc(O)n6)cc5)cc4)c(F)cc3[nH]2)C[C@@H]1O [Example 35],3
21,CC(CO)(CO)c1ccc(-c2ccc(-c3cc4nc(O[C@H]5CO[C@H](CO)[C@@H](O)C5)[nH]c4cc3Cl)cc2)cc1 [Example 7],6
22,OC[C@H]1OC[C@H](Oc2nc3cc(-c4ccc(-c5ccc(C6CNCCO6)cc5)cc4)c(Cl)cc3[nH]2)C[C@@H]1O (stereo partly drawn) [Example 8],12

# Same assay, conditions: recombinant human AMPK complex 7 (α2β1γ1); 10-point titration; read-out: % Maximum AMP Activation of human AMPK Complex 7
row,Compound,Emax [%]
1,OC[C@H]1OC[C@H](Oc2nc3c(F)c(-c4ccc(-c5ccc(-n6cncn6)cc5)cc4)c(F)cc3[nH]2)C[C@@H]1O [Example 45],391
2,OC[C@H]1OC[C@H](Oc2nc3cc(-c4ccc(-c5ccc(-n6cncn6)cc5)cc4)c(Cl)cc3[nH]2)C[C@@H]1O [Example 21],400
3,O=S(=O)(c1ccc(-c2ccc(-c3cc4nc(O[C@H]5CO[C@H](CO)[C@@H](O)C5)[nH]c4cc3Cl)cc2)cc1)C1CCNCC1 [Example 18],364
4,OC[C@H]1OC[C@H](Oc2nc3c(F)c(-c4ccc(-c5ccc(C6CNCCO6)cc5)cc4)c(F)cc3[nH]2)C[C@@H]1O (stereo partly drawn) [Example 36],327
5,OC[C@H]1OC[C@H](Oc2nc3cc(-c4ccc(-c5ccc(-c6nnn[nH]6)cc5)cc4)c(Cl)cc3[nH]2)C[C@@H]1O [Example 23],387
6,OC[C@H]1OC[C@H](Oc2nc3c(F)c(-c4ccc(-c5ccc(-c6nnc(O)o6)cc5)cc4)c(F)cc3[nH]2)C[C@@H]1O [Example 47],328
7,O=C1NCCC1c1ccc(-c2ccc(-c3c(F)cc4[nH]c(O[C@H]5CO[C@H](CO)[C@@H](O)C5)nc4c3F)cc2)cc1 (stereo partly drawn) [Example 43],398
8,OC[C@H]1OC[C@H](Oc2nc3c(F)c(-c4ccc(-c5ccc(-c6nccs6)cc5)cc4)c(F)cc3[nH]2)C[C@@H]1O [Example 39],192
9,OC[C@H]1OC[C@H](Oc2nc3cc(-c4ccc(-c5ccc(-c6nccc(O)n6)cc5)cc4)c(Cl)cc3[nH]2)C[C@@H]1O [Example 6],373
10,O=S(=O)(c1ccc(-c2ccc(-c3c(F)cc4[nH]c(O[C@H]5CO[C@H](CO)[C@@H](O)C5)nc4c3F)cc2)cc1)C1CCNCC1 [Example 42],401
11,O=C1NCCC1c1ccc(-c2ccc(-c3cc4nc(O[C@H]5CO[C@H](CO)[C@@H](O)C5)[nH]c4cc3Cl)cc2)cc1 (stereo partly drawn) [Example 19],392
12,CNC(=O)c1ccc(-c2ccc(-c3c(F)cc4[nH]c(O[C@H]5CO[C@H](CO)[C@@H](O)C5)nc4c3F)cc2)cc1 [Example 48],414
13,O=C(O)CCCc1ccc(-c2ccc(-c3c(F)cc4[nH]c(O[C@H]5CO[C@H](CO)[C@@H](O)C5)nc4c3F)cc2)cc1 [Example 44],426
14,CC(C)(O)Cc1cnn(-c2ccc(-c3ccc(-c4c(F)cc5[nH]c(O[C@H]6CO[C@H](CO)[C@@H](O)C6)nc5c4F)cc3)cc2)c1 [Example 50],403
15,OC[C@H]1OC[C@H](Oc2nc3c(F)c(-c4ccc(-c5ccc(-c6nnn[nH]6)cc5)cc4)c(F)cc3[nH]2)C[C@@H]1O [Example 49],419
16,OC[C@H]1OC[C@H](Oc2nc3c(F)c(-c4ccc(-c5ccc(-c6ncco6)cc5)cc4)c(F)cc3[nH]2)C[C@@H]1O [Example 38],266
17,CC(C)(O)Cc1cnn(-c2ccc(-c3ccc(-c4cc5nc(O[C@H]6CO[C@H](CO)[C@@H](O)C6)[nH]c5cc4Cl)cc3)cc2)c1 [Example 24],360
18,N=c1nc(N)[nH]n1-c1ccc(-c2ccc(-c3c(F)cc4[nH]c(O[C@H]5CO[C@H](CO)[C@@H](O)C5)nc4c3F)cc2)cc1 [Example 40],387
19,N=c1nc(N)[nH]n1-c1ccc(-c2ccc(-c3cc4nc(O[C@H]5CO[C@H](CO)[C@@H](O)C5)[nH]c4cc3Cl)cc2)cc1 [Example 16],373
20,OC[C@H]1OC[C@H](Oc2nc3c(F)c(-c4ccc(-c5ccc(-c6nccc(O)n6)cc5)cc4)c(F)cc3[nH]2)C[C@@H]1O [Example 35],370
21,CC(CO)(CO)c1ccc(-c2ccc(-c3cc4nc(O[C@H]5CO[C@H](CO)[C@@H](O)C5)[nH]c4cc3Cl)cc2)cc1 [Example 7],333
22,OC[C@H]1OC[C@H](Oc2nc3cc(-c4ccc(-c5ccc(C6CNCCO6)cc5)cc4)c(Cl)cc3[nH]2)C[C@@H]1O (stereo partly drawn) [Example 8],348

# Biological target: recombinant human AMPK complex 1 (containing α1β1γ1) (Homo sapiens (Human), UniProt Q13131+Q9Y478)
# Assay: In vitro AMPK activation assay (AMPKSAMSF), complex 1
# Format: biochemical
# Conditions: recombinant human AMPK complex 1 (α1β1γ1)
# Protocol: as §1, §2
# recombinant human AMPK complex 1 (containing α1β1γ1), sequence (Q13131 whole entry): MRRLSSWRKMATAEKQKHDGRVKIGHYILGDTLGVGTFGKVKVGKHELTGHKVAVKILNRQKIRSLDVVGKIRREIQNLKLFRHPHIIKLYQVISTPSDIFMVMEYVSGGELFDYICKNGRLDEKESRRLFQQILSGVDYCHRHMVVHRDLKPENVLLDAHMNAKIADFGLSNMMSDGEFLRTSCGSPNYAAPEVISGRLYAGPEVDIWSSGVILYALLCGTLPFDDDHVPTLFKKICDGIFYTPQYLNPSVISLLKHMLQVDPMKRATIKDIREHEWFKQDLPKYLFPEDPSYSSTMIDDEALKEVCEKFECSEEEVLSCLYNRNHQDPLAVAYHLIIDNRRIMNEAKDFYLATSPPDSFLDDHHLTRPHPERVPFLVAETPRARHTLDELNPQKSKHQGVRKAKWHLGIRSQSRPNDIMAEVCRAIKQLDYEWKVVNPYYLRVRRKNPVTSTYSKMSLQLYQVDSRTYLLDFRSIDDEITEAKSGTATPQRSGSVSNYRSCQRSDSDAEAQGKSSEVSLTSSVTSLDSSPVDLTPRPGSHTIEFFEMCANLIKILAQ
# recombinant human AMPK complex 1 (containing α1β1γ1), sequence (Q9Y478 whole entry): as the sequence (Q9Y478 whole entry) above
# recombinant human AMPK complex 1 (containing α1β1γ1), sequence (P54619 whole entry partner): as the sequence (P54619 whole entry partner) above
row,Compound,EC50 [nM]
1,CC(C)(O)c1ccc(-c2ccc(-c3c(F)cc4[nH]c(O[C@H]5CO[C@H](CO)[C@@H](O)C5)nc4c3F)cc2)cc1 [Example 29],26
2,CS(=O)(=O)c1ccc(-c2ccc(-c3c(F)cc4[nH]c(O[C@H]5CO[C@H](CO)[C@@H](O)C5)nc4c3F)cc2)cc1 [Example 26],7
3,CS(=O)(=O)Cc1ccc(-c2ccc(-c3cc4nc(O[C@H]5CO[C@H](CO)[C@@H](O)C5)[nH]c4cc3Cl)cc2)cc1 [Example 2],36

# Same assay, conditions: recombinant human AMPK complex 1 (α1β1γ1); 10-point titration
row,Compound,% Maximum AMP Activation of human AMPK Complex 1 [%]
1,CC(C)(O)c1ccc(-c2ccc(-c3c(F)cc4[nH]c(O[C@H]5CO[C@H](CO)[C@@H](O)C5)nc4c3F)cc2)cc1 [Example 29],492
2,CS(=O)(=O)c1ccc(-c2ccc(-c3c(F)cc4[nH]c(O[C@H]5CO[C@H](CO)[C@@H](O)C5)nc4c3F)cc2)cc1 [Example 26],558
3,CS(=O)(=O)Cc1ccc(-c2ccc(-c3cc4nc(O[C@H]5CO[C@H](CO)[C@@H](O)C5)[nH]c4cc3Cl)cc2)cc1 [Example 2],490

# Tested on: ob/ob and db/db mice
# Assay: not given
# Conditions: following 8 weeks of administration; cited from earlier work
row,Compound,blood glucose reduction [%]
1,NC(=O)c1ncn([C@@H]2O[C@H](CO)[C@@H](O)[C@H]2O)c1N [AICAR],35
